This passage reports inhibition and IC50 results from patent US10266497B2 (ABIDE THERAPEUTICS, INC., priority 2017, dated 2019).

Structures are written as SMILES. Where two headings read alike, the source gives them in different places. Some results are limits rather than exact numbers.

Experiment [1] has as its target T1, MAGL (Homo sapiens, UniProt Q99685).
T1 sequence (Q99685 1-303): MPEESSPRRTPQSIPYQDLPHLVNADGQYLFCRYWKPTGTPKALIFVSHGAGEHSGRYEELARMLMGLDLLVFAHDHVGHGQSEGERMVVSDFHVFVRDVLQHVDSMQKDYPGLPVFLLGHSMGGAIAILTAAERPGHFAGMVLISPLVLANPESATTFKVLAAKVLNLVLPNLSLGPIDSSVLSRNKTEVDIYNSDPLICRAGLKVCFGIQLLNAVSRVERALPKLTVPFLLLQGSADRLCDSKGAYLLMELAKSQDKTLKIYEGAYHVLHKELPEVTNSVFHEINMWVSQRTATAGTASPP
The experiment can be described thus: In vitro competitive activity-based protein profiling, MAGL, human. The conditions noted are these: read-out: MAGL % inh. 1 μM (human).

In experiment [2] the target is T2, MAGL (Mus musculus, UniProt O35678).
T2 sequence (O35678 1-303): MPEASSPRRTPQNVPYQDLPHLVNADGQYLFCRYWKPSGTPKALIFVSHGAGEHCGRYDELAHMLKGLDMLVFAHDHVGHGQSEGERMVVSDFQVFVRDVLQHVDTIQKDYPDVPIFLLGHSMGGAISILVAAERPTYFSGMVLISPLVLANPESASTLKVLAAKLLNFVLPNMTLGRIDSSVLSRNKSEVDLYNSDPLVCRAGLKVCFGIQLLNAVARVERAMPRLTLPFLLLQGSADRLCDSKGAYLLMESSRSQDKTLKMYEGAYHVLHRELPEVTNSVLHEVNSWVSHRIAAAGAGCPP
The experiment can be described thus: In vitro competitive activity-based protein profiling, MAGL, mouse. The conditions noted are these: read-out: MAGL % inh. 1 μM (mouse).
Description: (§1) Biological Evaluation In Vitro Competitive Activity-Based Protein Profiling.
(§2) Proteomes (mouse brain membrane fraction for mouse assays; human prefrontal cortex membrane fractions for human assays) (50 mL, 1.0 mg/mL total protein concentration) were preincubated with varying concentrations of inhibitors at 37° C. After 30 min, FP-Rh (1.0 mL, 50 mM in DMSO) was added and the mixture was incubated for another 30 min at 37° C. Reactions were quenched with SDS loading buffer (15 μL—4λ) and run on SDS-PAGE.

In experiment [3] the target is T3, FAAH (Homo sapiens, UniProt O00519).
T3 sequence (O00519 1-579): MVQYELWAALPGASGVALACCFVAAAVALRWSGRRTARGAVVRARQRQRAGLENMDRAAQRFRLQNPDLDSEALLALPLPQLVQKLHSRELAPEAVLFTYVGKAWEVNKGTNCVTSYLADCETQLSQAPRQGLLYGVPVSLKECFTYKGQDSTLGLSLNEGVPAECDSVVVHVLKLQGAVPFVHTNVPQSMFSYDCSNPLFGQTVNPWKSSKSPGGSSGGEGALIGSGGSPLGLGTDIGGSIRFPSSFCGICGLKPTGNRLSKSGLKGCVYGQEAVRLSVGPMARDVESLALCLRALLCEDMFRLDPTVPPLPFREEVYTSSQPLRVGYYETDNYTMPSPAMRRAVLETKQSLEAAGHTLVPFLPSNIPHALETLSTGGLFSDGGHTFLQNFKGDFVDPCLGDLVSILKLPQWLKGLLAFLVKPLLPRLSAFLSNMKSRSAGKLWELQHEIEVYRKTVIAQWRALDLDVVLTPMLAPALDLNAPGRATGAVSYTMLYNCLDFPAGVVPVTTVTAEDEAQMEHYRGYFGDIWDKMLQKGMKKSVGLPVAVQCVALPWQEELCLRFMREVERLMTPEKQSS
Put plainly: In vitro competitive activity-based protein profiling, FAAH, human. The conditions noted are these: for inhibition at 1 µM: read-out: FAAH % inh. 1 μM (human).
Description: as §1, §2

Experiment [4] addresses T4, FAAH (Mus musculus, UniProt O08914).
T4 sequence (O08914 1-579): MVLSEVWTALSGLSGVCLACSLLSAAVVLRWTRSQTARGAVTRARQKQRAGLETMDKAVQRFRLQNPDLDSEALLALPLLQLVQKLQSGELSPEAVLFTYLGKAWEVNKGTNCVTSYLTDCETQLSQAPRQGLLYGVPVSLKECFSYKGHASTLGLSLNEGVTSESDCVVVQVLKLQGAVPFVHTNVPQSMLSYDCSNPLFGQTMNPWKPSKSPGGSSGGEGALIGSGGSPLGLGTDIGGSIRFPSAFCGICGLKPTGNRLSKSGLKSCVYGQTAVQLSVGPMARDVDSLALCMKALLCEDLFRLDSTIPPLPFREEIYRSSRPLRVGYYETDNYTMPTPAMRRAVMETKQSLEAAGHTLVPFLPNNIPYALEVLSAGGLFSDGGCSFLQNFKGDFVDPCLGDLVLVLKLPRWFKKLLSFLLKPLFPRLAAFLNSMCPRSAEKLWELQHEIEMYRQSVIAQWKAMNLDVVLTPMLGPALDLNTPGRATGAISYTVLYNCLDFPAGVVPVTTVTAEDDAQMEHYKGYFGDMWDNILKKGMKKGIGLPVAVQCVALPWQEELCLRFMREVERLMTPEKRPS
Put plainly: In vitro competitive activity-based protein profiling, FAAH, mouse. The conditions noted are these: read-out: FAAH % inh. 1 μM (mouse).
Description: as §1, §2

The target in experiment [5] is T2, MAGL. The experiment can be described thus: Mouse brain proteomes from inhibitor treated mice (oral gavage, sacrificed 4 h after administration). The experiment is classed as in vivo. Further details: mouse brain membrane fraction for mouse assays; from tissue; host or cells: mouse brain (membrane fraction in vitro; brain proteomes of treated C57Bl/6J mice in vivo). The conditions noted are these: 5 mg/kg oral gavage, brain proteome 4 h after administration, read-out: MAGL % inh. 5 mg/kg (mouse).

Experiment [6] concerns the target T4, FAAH. The experiment can be described thus: Mouse brain proteomes from inhibitor treated mice (oral gavage, sacrificed 4 h after administration), FAAH. The format is in vivo. Further details: mouse brain membrane fraction for mouse assays; from tissue; host or cells: mouse brain (membrane fraction in vitro; brain proteomes of treated C57Bl/6J mice in vivo). The conditions noted are these: 5 mg/kg oral gavage, brain proteome 4 h after administration, read-out: FAAH % inh. 5 mg/kg (mouse).

With `O=C(O)c1ccn(C(=O)N2CCN(Cc3ccc(Cl)cc3N3C4CCC3COC4)CC2)n1` [Example 105, 1-(4-(2-(3-oxa-8-azabicyclo[3.2.1]octan-8-yl)-4-chlorobenzyl)piper-azine-1-carbonyl)-1H-pyrazole-3-carboxylic acid], the inhibition at 1 µM in experiment [1] was more than 75%; in experiment [2], more than 75%; in experiment [3] it was 0 to 25%; in experiment [4], 0 to 25%. Further, the inhibition at 5 mg/kg in experiment [5] and in experiment [6] was 0 to 25% throughout.

For the compound `O=C(O)c1ccn(C(=O)N2CC3CN(Cc4ccc(N5CCCC5)cc4C(F)(F)F)CC3C2)n1` (centres unmarked) [Example 123, 1-(5-(4-(pyrrolidin-1-yl)-2-(trifluoromethyl)benzyl)octahydro-pyrrolo[3,4-c]pyrrole-2-carbonyl)-1H-pyrazole-3-carboxylic acid], the inhibition at 1 µM in experiment [1] is more than 75%; in experiment [2], more than 75%; in experiment [3] it was 50 to 75%; in experiment [4], more than 75%. In addition, the inhibition at 5 mg/kg in experiment [5] and in experiment [6] was 0 to 25% throughout.

Regarding `O=C(O)c1ccn(C(=O)N2CCN(Cc3cccc(Cl)c3N3C4CCC3COC4)CC2)n1` [Example 212, 1-(4-(2-(3-oxa-8-azabicyclo[3.2.1]octan-8-yl)-3-chlorobenzyl)piper-azine-1-carbonyl)-1H-pyrazole-3-carboxylic acid], the inhibition at 1 µM in experiment [1] was more than 75%; in experiment [2], more than 75%; in experiment [3], 0 to 25%; in experiment [4], 0 to 25%. Also, the inhibition at 5 mg/kg in experiment [5] and in experiment [6] was 0 to 25% in each case.

Turning to `O=C(O)c1ccn(C(=O)N2CCN(Cc3ccc(C(F)(F)F)cc3N3CCOCC3)CC2)n1` [Example 3, 1-(4-(2-Morpholino-4-(trifluoromethyl)benzyl)piperazine-1-carbonyl)-1H-pyrazole-3-carboxylic Acid], the inhibition at 1 µM in experiment [2] was more than 75%; in experiment [4] it was 0 to 25%. For the same compound, the 50% inhibitory concentration (IC50) in experiment [3] lay in the range of 1 to 10 µM. Also, the inhibition at 5 mg/kg in experiment [5] and in experiment [6] was 0 to 25% throughout.

In the case of `Cc1cc(-c2ccccc2)ccc1CN1CCN(C(=O)n2ccc(C(=O)O)n2)[C@H](C)C1` [Example 245, (R)-1-(2-methyl-4-((3-methyl-[1,1′-biphenyl]-4-yl)methyl)piperazine-1-carbonyl)-1H-pyrazole-3-carboxylic acid], the inhibition at 1 µM in experiment [1] and in experiment [2] was more than 75% throughout. Moreover, the inhibition at 5 mg/kg in experiment [5] was in the range of 0 to 25%.

On to `NC(=O)c1ccn(C(=O)N2CC3CN(Cc4ccc(C5(C(=O)O)CCOCC5)cc4C(F)(F)F)CC3C2)n1` (centres unmarked) [Example 35, 4-(4-((5-(3-carbamoyl-1H-pyrazole-1-carbonyl)hexahydropyrrolo[3,4-c]pyrrol-2(1H)-yl)methyl)-3-(trifluoromethyl)phenyl)tetrahydro-2H-pyran-4-carboxylic Acid], for which the inhibition at 1 µM in experiment [1] and in experiment [2] was more than 75% in each case. The inhibition at 5 mg/kg in experiment [5] was 0 to 25%.

For `O=C(O)c1nn(C(=O)N2CCC3(CCN(Cc4cc(Cl)cc(C(F)(F)F)c4)C3)CC2)cc1Cl` [Example 388, 4-chloro-1-(2-(3-chloro-5-(trifluoromethyl)benzyl)-2,8-diazaspiro[4.5]decane-8-carbonyl)-1H-pyrazole-3-carboxylic acid], the inhibition at 1 µM in experiment [1] and in experiment [2] was more than 75% each time. Further, the inhibition at 5 mg/kg in experiment [5] is 0 to 25%.

With `C[C@@H]1CC[C@@H](C)N1c1cc(C(F)(F)F)ccc1CN1CCN(C(=O)n2ccc(C(=O)O)n2)CC1` [Example 359, 1-(4-(2-((2R,5R)-2,5-dimethylpyrrolidin-1-yl)-4-(trifluoromethyl)benzyl)piperazine-1-carbonyl)-1H-pyrazole-3-carboxylic acid], the inhibition at 1 µM in experiment [1] and in experiment [2] was more than 75% each time. Further, in experiment [5], the inhibition at 5 mg/kg lay in the range of 0 to 25%.

In the case of `C[C@@H]1C[C@H](N(C)Cc2cccc(C(F)(F)F)c2)CCN1C(=O)n1ccc(C(N)=O)n1` [Example 257, 1-((2R,4R)-2-methyl-4-(methyl(3-(trifluoromethyl)benzyl)amino)piper-idine-1-carbonyl)-1H-pyrazole-3-carboxamide], the inhibition at 1 µM in experiment [1] and in experiment [2] was more than 75% each time. Further, in experiment [5], the inhibition at 5 mg/kg is more than 75%.

For the compound `CN(Cc1cc(N2CCCC2)cc(C(F)(F)F)c1)C1(C)CCN(C(=O)n2ccc(C(=O)O)n2)CC1` [Example 381, 1-(4-methyl-4-(methyl(3-(pyrrolidin-1-yl)-5-(trifluoromethyl)benzyl)amino)piper-idine-1-carbonyl)-1H-pyrazole-3-carboxylic acid], the inhibition at 1 µM in experiment [1] and in experiment [2] was more than 75% each time. Further, the inhibition at 5 mg/kg in experiment [5] fell in the range of 0 to 25%.

In the case of `C[C@H]1CN(Cc2ccc(C(F)(F)F)cc2N2C3CCC2COC3)CCN1C(=O)n1ccc(C(=O)O)n1` [Example 395, 1-((2S)-4-(2-(3-oxa-8-azabicyclo[3.2.1]octan-8-yl)-4-(trifluoromethyl)benzyl)-2-methylpiperazine-1-carbonyl)-1H-pyrazole-3-carboxylic acid], the inhibition at 1 µM in experiment [1] and in experiment [2] was more than 75% throughout. Besides, the inhibition at 5 mg/kg in experiment [5] (C57Bl/6J mice) was in the range of 0 to 25%.

Regarding `CN(Cc1cc(C(F)(F)F)ccc1N1CCCC1)C1(C)CCN(C(=O)n2ccc(C(=O)O)n2)CC1` [Example 384, 1-(4-methyl-4-(methyl(2-(pyrrolidin-1-yl)-5-(trifluoromethyl)benzyl)amino)piper-idine-1-carbonyl)-1H-pyrazole-3-carboxylic acid], the inhibition at 1 µM in experiment [1] and in experiment [2] was more than 75% throughout. For the same compound, the inhibition at 5 mg/kg in experiment [5] was 0 to 25%.

As for `Cc1ccc(Oc2cccc(CN3CCN(C(=O)n4ccc(C(=O)O)n4)CC3)c2)cc1` [Example 251, 1-(4-(3-(p-tolyloxy)benzyl)pi-perazine-1-carbonyl)-1H-pyrazole-3-carboxylic acid], the inhibition at 1 µM in experiment [1] and in experiment [2] was more than 75% throughout. For the same compound, the inhibition at 5 mg/kg in experiment [5] was 0 to 25%.
